According to patent US20240100065A1, “METHODS FOR TREATING RECEPTOR-INTERACTING PROTEIN KINASE 1-MEDIATED DISEASES” (Genzyme Corporation, priority 2022, published 2024):
Read-outs that look alike come from different tables or passages of the source.

Assay: Plasma pharmacokinetics after single and repeated oral doses
Format: in vivo, healthy adult participants (human)
Conditions: for Time to steady state (Tss), 50% median, point estimate / Time to steady state (Tss), 90% quantile, point estimate: overall; for AUC / AUC(0-t) / Cmax / Tmax / Vd/F: human, plasma, oral; for Vd/F: read-out: Vz/F, mean
Procedure: In Part 1a, plasma samples were collected before dosing and at 10 post-dose timepoints on Day 1 (30 minutes, 1 hour, followed by every hour until 6 hours, and then every 2 hours until 12 hours), and single samples on Day 2 (at 24 hours) and Day 3 (at 48 hours). In Part 1b, timepoints included at least pre-dose and at 10 post-dose timepoints, including plasma sampling at the same time of CSF sampling. In Part 2, on Day 1 and Day 14, plasma samples were collected at pre-dose and at 10 to 11 post-dose timepoints. In addition, plasma samples were collected on Days 2, 3, 5, 7, 11, 15, 16, and 17.
PK population included all participants exposed to Compound 1 with no major or critical deviations related to Compound 1 and for whom PK data were considered sufficient and interpretable. PK parameters were summarized by descriptive statistics for each dose level group. Distribution of Tmax values was represented by histogram plots for each dose level group. In Part 1a, dose proportionality was assessed using a linear model on Cmax, AUClast and AUC. In Part 2, all PK analyses were performed separately for each regimen (OD and BID). Steady state was assessed on Ctrough using a non-linear model. Accumulation was assessed using a linear model on log-transformed accumulation ratio. Dose proportionality was assessed using a power model on Cmax and AUCtau on Day 1 and Day 14, separately. Variance components of log-transformed Cmax and AUCtau were estimated using a linear model. In Part 1b, CSF concentration was described by dose level group and CSF to plasma unbound concentration ratios calculated were described in the same way. 4β-hydroxycholesterol on Day 14 versus Day 1 pre-dose concentration ratios were summarized using descriptive statistics by dose level group and point estimates with 90% confidence interval (90% CI) for the geometric mean of the log-transformed Day14/Day1 ratio was calculated in Part 2.

[1] = Part 2, cohorts at 10 and 20 mg QD
[2] = Part 2, cohorts at 15 and 20 mg BID
[3] = Part 2 Day 1, 10 mg QD, tau 24 hours
[4] = Part 2 Day 1, 15 mg BID, fasted
[5] = Part 2 Day 1, 20 mg BID, fasted
[6] = Part 2 Day 1, 20 mg BID, tau 12 hours
[7] = Part 2 Day 14 steady state, 10 mg QD
[8] = Part 2 Day 14 steady state, 15 mg BID
[9] = Part 2 Day 14 steady state, 20 mg BID
[10] = Part 2 Day 14 steady state, 20 mg QD
[11] = Part 2 Day 14 steady state, 20 mg QD, tau 24 hours

CC(C)(C(=O)N1CCOc2c(C#N)cncc2C1)C(F)F [Compound 1, 4-(3,3-difluoro-2,2-dimethyl-propanoyl)-3,5-dihydro-2H-pyrido[3,4-f] [1,4]oxazepine-9-carbonitrile]
Time to steady state (Tss), 50% median, point estimate [1]: 1.81 days | Time to steady state (Tss), 90% quantile, point estimate [1]: 2.45 days | Time to steady state (Tss), 50% median, point estimate [2]: 1.43 days | Time to steady state (Tss), 90% quantile, point estimate [2]: 1.65 days | Cmax, Gmean (Part 2 Day 1, 10 mg QD, fasted): (157) [20.7] ng/mL | Tmax, median (Part 2 Day 1, 10 mg QD, fasted): 1.00 h | AUCtau, Gmean [3]: (1080) h*ng/ml | AUCtau, mean ± SD [3]: 1110 ± 268 ng·h/mL | Cmax, Gmean [4]: (211) [44.2] ng/mL | Tmax, median [4]: 1.00 h | AUCtau, Gmean (Part 2 Day 1, 15 mg BID, tau 12 hours): (1100) [33.1] h*ng/ml | Cmax, Gmean [5]: (205) [20.3] ng/mL | Cmax, mean ± SD [5]: 209 ± 42.4 ng/mL | Tmax, median [5]: 2.00 h | AUCtau, Gmean [6]: (1350) h*ng/ml | AUCtau, mean ± SD [6]: 1370 ± 252 ng·h/mL | Cmax, Gmean (Part 2 Day 1, 20 mg QD, fasted): (240) [20.2] ng/mL | Tmax, median (Part 2 Day 1, 20 mg QD, fasted): 1.50 h | AUCtau, Gmean (Part 2 Day 1, 20 mg QD, tau 24 hours): (1860) [22.5 h*ng/ml | CLSS/F, Gmean (Part 2 Day 14, 10 mg QD): (7.08) [25.9] L/h | CLSS/F, mean ± SD (Part 2 Day 14, 10 mg QD): 7.30 ± 1.89 L/h | Ctrough, Gmean (Part 2 Day 14, 10 mg QD): (19.9) [57.0] ng/mL | Ctrough, mean ± SD (Part 2 Day 14, 10 mg QD): 22.8 ± 13.0 ng/mL | T1/2z, Gmean (Part 2 Day 14, 10 mg QD): (8.87) [23.2] h | T1/2z, mean ± SD (Part 2 Day 14, 10 mg QD): 9.07 ± 2.11 h | CLSS/F, Gmean (Part 2 Day 14, 15 mg BID): (9.16) [30.0] L/h | CLSS/F, mean ± SD (Part 2 Day 14, 15 mg BID): 9.54 ± 2.86 L/h | Ctrough, Gmean (Part 2 Day 14, 15 mg BID): (79.3) [33.0] ng/mL | Ctrough, mean ± SD (Part 2 Day 14, 15 mg BID): 83.7 ± 27.4 ng/mL | T1/2z, Gmean (Part 2 Day 14, 15 mg BID): (7.21) [15.6] h | T1/2z, mean ± SD (Part 2 Day 14, 15 mg BID): 7.29 ± 1.14 h | CLSS/F, Gmean (Part 2 Day 14, 20 mg BID): (9.27) [24.9] L/h | CLSS/F, mean ± SD (Part 2 Day 14, 20 mg BID): 9.53 ± 2.37 L/h | Ctrough, Gmean (Part 2 Day 14, 20 mg BID): (99.3) [40.0] ng/mL | Ctrough, mean ± SD (Part 2 Day 14, 20 mg BID): 107 ± 42.7 ng/mL | T1/2z, Gmean (Part 2 Day 14, 20 mg BID): (7.37) [23.0] h | T1/2z, mean ± SD (Part 2 Day 14, 20 mg BID): 7.54 ± 1.74 h | CLSS/F, Gmean (Part 2 Day 14, 20 mg QD): (9.40) [22.2] L/h | CLSS/F, mean ± SD (Part 2 Day 14, 20 mg QD): 9.60 ± 2.14 L/h | Ctrough, Gmean (Part 2 Day 14, 20 mg QD): (30.4) [49.0] ng/mL | Ctrough, mean ± SD (Part 2 Day 14, 20 mg QD): 34.2 ± 16.6 ng/mL | T1/2z, Gmean (Part 2 Day 14, 20 mg QD): (8.53) [19.0] h | T1/2z, mean ± SD (Part 2 Day 14, 20 mg QD): 8.68 ± 1.65 h | Cmax, Gmean [7]: (158) [31.9] ng/mL | Tmax, median [7]: 1.00 h | AUCtau, Gmean (Part 2 Day 14 steady state, 10 mg QD, tau 24 hours): (1410) [27.4] h*ng/mL | Cmax, Gmean [8]: (268) [36.3] ng/mL | Tmax, median [8]: 1.00 h | AUCtau, Gmean (Part 2 Day 14 steady state, 15 mg BID, tau 12 hours): (1640) [32.5] h*ng/mL | Cmax, Gmean [9]: (353) [19.9] ng/mL | Tmax, median [9]: 1.00 h | AUCtau, Gmean (Part 2 Day 14 steady state, 20 mg BID, tau 12 hours): (2160) [25.9] h*ng/mL | Cmax, Gmean [10]: (250) [22.7] ng/mL | Tmax, median [10]: 2.00 h | AUCtau, Gmean [11]: (2130) [21.4] h*ng/mL | AUCtau, mean ± SD [11]: 2170 ± 465 ng·h/mL | Accumulation ratio (AUC0-24h), Day 14/Day 1 (Pooled doses QD): ~1.22 | Within-subject variability for AUCtau (QD cohorts): 8.0% | Within-subject variability for Cmax (QD cohorts): 15.8% | Total variability for AUCtau (QD dosing regimen): 21.6% | Total variability for Cmax (QD dosing regimen): 20.6% | AUC (10 mg, Part 1a single 10 mg fasted, read-out: AUC, mean): 1250 ng·h/mL | AUC(0-t) (10 mg, Part 1a single 10 mg fasted, read-out: AUClast, mean): 1200 ng·h/mL | Cmax (10 mg, Part 1a single 10 mg fasted, read-out: Cmax, mean): 119 ng/mL | AUC (10 mg, Part 1b single 10 mg fed, read-out: AUC, mean): 1460 ng·h/mL | AUC(0-t) (10 mg, Part 1b single 10 mg fed, read-out: AUClast, mean): 1220 ng·h/mL | Cmax (10 mg, Part 2 Day 1, 10 mg QD, fasted, read-out: Cmax, mean ± SD): 161 ± 33.2 ng/mL | AUC (10 mg, Part 2 Day 14 steady state, 10 mg QD, tau 24 hours, read-out: AUCtau, mean ± SD): 1460 ± 399 ng·h/mL | Cmax (10 mg, Part 2 Day 14 steady state, 10 mg QD, read-out: Cmax, mean ± SD): 164 ± 52.3 ng/mL | Cmax (15 mg, Part 2 Day 1, 15 mg BID, fasted, read-out: Cmax, mean ± SD): 229 ± 101 ng/mL | AUC (15 mg, Part 2 Day 1, 15 mg BID, tau 12 hours, read-out: AUCtau, mean ± SD): 1150 ± 380 ng·h/mL | AUC (15 mg, Part 2 Day 14 steady state, 15 mg BID, tau 12 hours, read-out: AUCtau, mean ± SD): 1710 ng·h/mL | Cmax (15 mg, Part 2 Day 14 steady state, 15 mg BID, read-out: Cmax, mean ± SD): 284 ng/mL | AUC(0-t) (20 mg, 20 mg BID, read-out: AUC0-24 h (corresponding to AUC0-12 h*2)): 15 µM·h | Cmax (20 mg, 20 mg BID, read-out: Mean observed Cmax): 1220 nM | AUC(0-t) (20 mg, 20 mg QD, MAD study, read-out: Mean observed AUC0-24 at steady state): 7.35 µM·h | Cmax (20 mg, Part 1a single 20 mg fasted, read-out: Cmax, mean): 245 ng/mL | Cmax (20 mg, Part 2 Day 1, 20 mg QD, fasted, read-out: Cmax, mean ± SD): 245 ± 49.5 ng/mL | AUC (20 mg, Part 2 Day 1, 20 mg QD, tau 24 hours, read-out: AUCtau, mean ± SD): 1910 ± 429 ng·h/mL | AUC (20 mg, Part 2 Day 14 steady state, 20 mg BID, tau 12 hours, read-out: AUCtau, mean ± SD): 2220 ± 574 ng·h/mL | Cmax (20 mg, Part 2 Day 14 steady state, 20 mg BID, read-out: Cmax, mean ± SD): 359 ± 71.6 ng/mL | Cmax (20 mg, Part 2 Day 14 steady state, 20 mg QD, read-out: Cmax, mean ± SD): 255 ± 58 ng/mL | AUC (30 mg, Part 1a single 30 mg fasted, read-out: AUC, mean): 2570 ng·h/mL | AUC(0-t) (30 mg, Part 1a single 30 mg fasted, read-out: AUClast, mean): 2540 ng·h/mL | Cmax (30 mg, Part 1a single 30 mg fasted, read-out: Cmax, mean): 439 ng/mL | AUC (40 mg, Part 1a single 40 mg fasted, read-out: AUC, mean): 5460 ng·h/mL | AUC(0-t) (40 mg, Part 1a single 40 mg fasted, read-out: AUClast, mean): 5390 ng·h/mL | Cmax (40 mg, Part 1a single 40 mg fasted, read-out: Cmax, mean): 576 ng/mL | AUC (40 mg, Part 1b single 40 mg fed, read-out: AUC, mean): 5060 ng·h/mL | AUC(0-t) (40 mg, Part 1b single 40 mg fed, read-out: AUClast, mean): 4100 ng·h/mL | Cmax (40 mg, Part 1b single 40 mg fed, read-out: Cmax, mean): 381 ng/mL | Tmax (Part 1a, single 10 to 40 mg, fasted, read-out: Median tmax across doses): 1 to 1.5 h | Tmax (Part 2, single or repeated administration, fasted, read-out: Median Tmax across dose levels): 1 to 2 h | Vd/F (Part 1a single 40 mg fasted): 71.7 L | Vd/F (Part 1b single 10 mg fed): 86 L
